The conditions of data set [1]: for 10 hr. t1/2 temp.: Table II, solvent not given; for temperature of 10 hour half-life: in trichlorobenzene; for t1/2: trichlorobenzene.
The nature of data set [2]: Stability in unsaturated polyester-styrene resin at room temperature. It is filed as physicochemical. As to conditions: unsaturated polyester-styrene resin of Example III. The procedure:
An unsaturated polyester resin was made by reacting maleic anhydride (1.0 mole), phthalic anhydride (1.0 mole), and propylene glycol (2.2 moles) until an acid number of 45-50 was obtained. To this was added hydroquinone at a 0.013% concentration. Seven parts of this unsaturated polyester was diluted with 3 parts of monomeric styrene to obtain a homogeneous blend having a viscosity of 13.08 poise and a specific gravity of 1.14.

Data set [3] can be described thus: Thermal decomposition half-life in odorless mineral spirits. Format: physicochemical.
The nature of data set [4]: Preliminary toxicological studies compared with AIBN. From the text:
In general, the new compositions of the present invention eliminate these problems. The tertiary-(alkyl, cycloalkyl, bicycloalkyl or aralkyl) group on the one side of the azo function lowers the melting point of these compounds so that most of them are liquids or low melting solids which can be handled in the melted state. In addition, this tertiary group increases the solubility of these azos so that most of them are completely miscible with the common organic solvents including petroleum hydrocarbons. Thus, no dusting, metering, incorporating, mixing, and dispersing problems are encountered in using these new compositions. […] The less toxic nature of the new compositions coupled with their liquid and high solubility properties allows them to be used in many applications where AIBN cannot be used.

Data set [5] has as its system rat. As to conditions: in rat; decomposition residue of AIBN; cited from earlier work.
Data set [6] in a line: Thermal decomposition half-life in water. Format: physicochemical.
The nature of data set [7]: Solubility in petroleum / hydrocarbon / common organic solvents. As to conditions: even at temperatures as low as -20°C.

Like-named read-outs stand apart in the source and are kept apart here.

In the case of `CC(C)(C)N=NC1(C#N)C(C)(C)C(=O)C1(C)C` [XLIII, 3-t-butylazo-3-cyano-2,2,4,4-tetramethylcyclobutanone], the “10 hr. t1/2 temp.” value in data set [1] worked out at 115 °C.

In the case of `CC(C)(C)N=NC1(C#N)CCCCCCC1` [Example 1-t-Butylazo-1-cyanocyclooctane, 1-t-Butylazo-1-cyanocyclooctane], in data set [1], the “temperature of 10 hour half-life” value is “approximately 55 °C”. Regarding `CC(C)(C)N=NC1(C#N)CCCCC1` [Example V, 1-t-Butylazo-1-cyanocyclohexane], the “temperature of 10 hour half-life” value in data set [1] is 96 °C. The t1/2 in data set [1] (96.3 °C) is 10.0 h; in data set [1] (100 °C) it was 6.7 h; in data set [1] (110 °C), 2.3 h; in data set [1] (120 °C), 0.75 h.

With `CC(C)(C)N=NC(C)(C#N)COC(=O)c1ccccc1` (stereo not drawn) [2-t-Butylazo-2-cyano-1-benzoyloxypropane], in data set [1], the “temperature of 10 hour half-life” value is “approximately 77 °C”. For `CC(C)CC(C)(C#N)N=NC(C)(C)C` (stereo not drawn) [Example XXXII, 2-t-Butylazo-2-cyano-4-methylpentane], in data set [2], the “period stable in the resin” value is “exceeding 1 month”. For the same compound, the “temperature of 10 hour half-life” value in data set [1] was “approximately 70 °C”.

Take `CC(C)CC(C#N)(CC(C)C)N=NC(C)(C)C` [Example VII, 4-t-Butylazo-4-cyano-2,6-dimethylheptane]: the “temperature of 10 hour half-life” value in data set [1] was 61 °C. The same measure, in the same setting: as for `CC(C)(C)N=NC(C)(C)C(N)=O` [Example LXIV, 2-t-Butylazo-2-carbamylpropane], the figure is 110 °C; as for `CC(C)(C#N)N=NC(C)(C)c1ccccc1` [Example XII, 2-t-Cumylazo-2-cyanopropane], 50 °C. With `CC(C)(C)N=NC(C)(C)C#N` [Example I, 2-t-Butylazo-2-cyanopropane], the “temperature of 10 hour half-life” value was 86 °C in data set [3] and 79 °C in data set [1]. Also, the “toxicity compared with AIBN” value in data set [4] was “significantly less toxic than AIBN”. The t1/2 stood at 40.5 h in data set [1] (70 °C); 10.0 h in data set [1] (78.8 °C); 2.0 h in data set [1] (90 °C); 0.54 h in data set [1] (100 °C); 0.20 h in data set [1] (110 °C). With `CC1(N=NC2(C#N)CCCCC2)CCCCC1` [LXII, 1-t-(Methylcyclohexyl)azo-1-cyanocyclohexane], the “temperature of 10 hour half-life” value in data set [1] is “approximately 100 °C”.

As to `CCCCCCC(C)(C#N)N=NC(C)(C)C` (stereo not drawn) [LI, 2-t-butylazo-2-cyanooctane], the “10 hr. t1/2 temp.” value in data set [1] was 79 °C.

For the compound `CC(C)(C)N=NC(C)(C#N)C(C)(C)C` (stereo not drawn) [IX, 2-t-Butylazo-2-cyano-3,3-dimethylbutane], the “temperature of 10 hour half-life” value in data set [1] was 80 °C. The same measure, in the same setting: as for `CC(C)C(=O)OCC(C)(C#N)N=NC(C)(C)C` (stereo not drawn) [2-t-Butylazo-2-cyano-1-isobutyroyloxypropane], the entry is “approximately 79 °C”; as for `CC(C)(C)N=NC1(C#N)CCCCCC1` [Example 1-t-Butylazo-1-cyanocycloheptane, 1-t-Butylazo-1-cyanocycloheptane], “approximately 68 °C”; as for `COC(C)(C)CC(C)(C#N)N=NC(C)(C)C` (stereo not drawn) [Example XXXIV, 2-t-Butylazo-2-cyano-4-methoxy-4-methylpentane], “approximately 55 °C”. On to `CC(C)(C)N=NC(C)(C#N)C1CC1` (stereo not drawn) [1-t-Butylazo-1-cyano-1-cyclopropylethane], for which the “temperature of 10 hour half-life” value in data set [1] came out at 62 °C. Consider `CC(C)(N=NC1(C#N)CCCCC1)c1ccccc1` [Example LVI, 1-t-Cumylazo-1-cyanocyclohexane], for which the “temperature of 10 hour half-life” value in data set [1] was “approximately 62.5 °C”. On to `CC(C)CC(C)(C#N)N=NC(C)(C)c1ccccc1` (stereo not drawn) [Example LVII, 2-t-Cumylazo-2-cyano-4-methylpentane], for which the “temperature of 10 hour half-life” value in data set [1] was “approximately 33 °C”. Turning to `CC(C)(C#N)C(C)(C)C#N` [2,2,3,3-tetramethylsuccinonitrile], in data set [5], the LD50 (usually the dose expected to kill half of the subjects tested) was 30 mg/kg. For `CC(C)CCC(C)(C#N)N=NC(C)(C)C` (stereo not drawn) [2-t-Butylazo-2-cyano-5-methylhexane], the “temperature of 10 hour half-life” value in data set [1] was “approximately 78 °C”.

Regarding `CC(C)(C)CC(C)(C#N)N=NC(C)(C)C` (stereo not drawn) [XLI, 2-t-butylazo-2-cyano-4,4-dimethylpentane], in data set [1], the “10 hr. t1/2 temp.” value worked out at 52 °C. Take `CC(C)(C)N=NC(C)(C#N)c1ccccc1` (stereo not drawn) [XLII, 1-t-butylazo-1-cyano-1-phenylethane]: the “10 hr. t1/2 temp.” value in data set [1] was ~ 30 °C. Consider `CC(C)(C)N=NC(C)(C#N)COC(=O)C(C)(C)C` (stereo not drawn) [2-t-Butylazo-2-cyano-1-pivaloyloxypropane], for which, in data set [1], the “temperature of 10 hour half-life” value was “approximately 75 °C”. `CC(C)(C)N=NC(C)(C)C(N)=NO` [2-t-Butylazo-2-methylpropionamidoxime]: the “temperature of 10 hour half-life” value in data set [1] was “approximately 90 °C”. Regarding `CC(C)(C)N=NC(C)(C#N)CCC(=O)O` (stereo not drawn) [Example X, 4-t-Butylazo-4-cyanovaleric Acid], the “temperature of 10 hour half-life” value is 76 °C in data set [1] and 73 °C in data set [6]. Turning to `CCC(C)(C)N=NC1(C#N)CCCCC1` [XV, 1-t-Amylazo-1-cyanocyclohexane], the “temperature of 10 hour half-life” value in data set [1] is “approximately 94 °C”. The same measure, in the same setting: then `CC(C)(C)N=NC1(C(N)=O)CCCCC1` [LXIII, 1-t-Butylazo-1-carbamylcyclohexane], with 111 °C; and `CCC(C)(C)N=NC(C)(C)C#N` [XIV, 2-t-Amylazo-2-cyanopropane], with 79 °C. For the compound `CCC(C)(C#N)N=NC(C)(C)C` (stereo not drawn) [Example VI, 2-t-Butylazo-2-cyanobutane], the “solubility in hydrocarbon solvents” value in data set [7] is on record as “very soluble”. Besides, the “temperature of 10 hour half-life” value is “around 82 °C” in data set [3] and “around 80 °C” in data set [1]. `CC1CC(C)(C)CC(C#N)(N=NC(C)(C)C)C1` (stereo not drawn) [Example VIII, 1-t-Butylazo-1-cyano-3,3,5-trimethylcyclohexane]: in data set [1], the “temperature of 10 hour half-life” value was 78 °C.
